Key:
Format in all cases: cell-based, mouse
[1] = system: wild type MEFs; assay: Lysosomal degradation of DQ-BSA in wild type MEFs; details: 250 nM torin 1; 6 h DQ-BSA uptake
Experimental: (§1) For live imaging, medium was supplemented with 0.3 mg/ml DQ Green BSA. 1 h prior to imaging, 50 nM LysoTracker Red and 0.2 μg/ml Hoechst were added. Cells were imaged either immediately after addition of DQ-BSA and torin 1, or after 5-6 h incubation using a Zeiss LSM 5 LIVE.
To further investigate how Ras and mTORC1 signaling regulated lysosomal proteolysis of internalized proteins, the effects of mTORC1 inhibition and K-Ras activation were compared. […] Thus, K-Ras enhances a cell's ability to take up and degrade extracellular proteins. In contrast, whereas mTORC1 specifically restricts their lysosomal degradation.

[2] = system: Ulk1/2 DKO MEFs expressing K-Ras^G12V; assay: Proliferation of Ulk1/2 DKO MEFs expressing K-Ras^G12V; details: leucine-free medium containing 3% albumin; 250 nM torin 1
Experimental: K-Ras^G12D MEFs were pre-treated for 1 h with 250 nM torin 1 and then incubated with fluorescently labeled dextran or albumin. Intracellular dextran or albumin was quantified after 30 min uptake. Data are represented as mean±STDEV (n=6 fields of view with >10 cells each). P-values were calculated using a two-tailed unpaired t-test. n.s. not significant. […] Uptake of fluorescently labeled dextran was quantified after 30 min uptake. Data are represented as mean±STDEV (n=8 fields of view with >10 cells each). P-values were calculated using a two-tailed unpaired t-test. n.s. not significant. […] K-Ras^G12D MEFs were pre-treated for 1 h with 250 nM torin 1, then incubated with fluorescently labeled dextran for indicated periods of time. Data are represented as mean±STDEV (n=8 fields of view with >10 cells each). […] Mean fluorescence intensity per cell was determined after 6 h of DQ-BSA uptake. Data are represented as mean±STDEV (n=7 fields of view with >15 cells each). P-values were calculated using a two-tailed unpaired t-test. ***p<0.001, n.s. not significant. […] DQ-BSA fluorescence intensity is represented as mean±STDEV (n=7 fields of view with >20 cells each). P-values were calculated using a two-tailed unpaired t-test. ***p<0.001. […] DQ-BSA fluorescence intensity is represented as mean±STDEV (n=6 fields of view with >30 cells each). P-values were calculated using a two-tailed unpaired t-test. […]

[3] = system: K-Ras^G12D MEFs; assay: 14C-leucine labeling of proteins and lipids; details: mean±STDEV (n=3); control cells 364±69
Experimental: Cells were cultured in full medium containing 0.5 μCi (0.4%) L-[^14C(U)]-Leucine (Perkin Elmer) for 24 h. Total lipid and protein fractions were isolated essentially according to the Blight-Dyer method (Bligh and Dyer, 1959). Protein pellets were resolubilized in 6 M guanidine hydrochloride, then transferred to scintillation fluid. Organic phase-dissolved lipids were transferred to scintillation vials, and after solvent evaporation, resuspended in scintillation fluid. ^14C-leucine content of proteins and lipids was quantified by scintillation counting.

[4] = system: K-Ras^G12D MEFs; assay: Uptake of fluorescently labeled dextran or albumin; details: pre-treated 1 h with 250 nM torin 1; 30 min uptake
Experimental: (§2) To characterize how cells derive leucine from extracellular proteins, cellular albumin uptake was investigated using constitutively fluorescent albumin and intracellular albumin proteolysis using a self-quenched albumin that emits fluorescence upon degradation (DQ-BSA) (Reis et al., 1998). […] It was then determined whether lysosomal albumin degradation was required to support growth during leucine starvation. […] Ras GTPases can promote cellular uptake of macromolecules through macropinocytosis (Bar-Sagi and Feramisco, 1986). […] To investigate whether this endocytic pathway contributed to albumin-dependent growth, cells were treated with the Na^+/H^+ exchange inhibitor EIPA, which blocks macropinocytosis but not other endocytic pathways (West et al., 1989).
(§3) To distinguish these possibilities, it was first tested whether mTORC1 inhibition increased internalization of extracellular macromolecules. […] It was next examined whether mTORC1 inhibition affected lysosomal degradation of internalized proteins.

[5] = system: K-Ras^G12D MEFs; assay: Lysosomal degradation of DQ-BSA (fluorescence dequenching) in K-Ras^G12D MEFs
Experimental: as §1, §2, §3

[6] = system: K-Ras^G12D MEFs; assay: Proliferation assay (cell numbers) of K-Ras^G12D MEFs in starvation medium
Experimental: Cell culture experiments were performed at 37° C. and 5% CO2 in DMEM/F12 with 10% dialyzed FBS (molecular weight cut-off 10,000; Gemini Biosystems), 100 U/mL penicillin, 100 μg/mL streptomycin, 5 mM glucose and 2 mM glutamine. For proliferation assays, MEFs were plated in complete medium, 5 h later briefly rinsed and then cultured in starvation medium as indicated. For EAA titration experiments, EAAs were supplemented at indicated percentages of 1×MEM amino acid solution (M5550, Sigma). Cancer cell lines were cultured in complete medium for 1 day prior to starvation. Numbers of adherent cells, which are >95% viable as assessed by Trypan Blue exclusion were determined using a Multisizer 4 Coulter Counter (Beckman). For mTOR activation and localization experiments, cells were rinsed and then incubated in EAA starvation medium (DMEM/F12 lacking all amino acids except glutamine) for 1 h, and subsequently placed in medium supplemented with EAAs (1×MEM amino acid solution), albumin (3%, if not stated otherwise) or fresh EAA-free starvation medium for indicated periods of time.

With `CCC(=O)N1CCN(c2ccc(-n3c(=O)ccc4cnc5ccc(-c6cnc7ccccc7c6)cc5c43)cc2C(F)(F)F)CC1` [torin 1] the DQ-BSA fluorescence [1] was “significant increase”, the cell proliferation [2] was “enhanced proliferation” and the “ratio of protein to lipid incorporation of 14C-leucine label” value [3] was 203±27. The “cellular uptake of fluorescently labeled dextran or albumin” value [4] was “neither torin 1 nor Raptor knockdown elevated cellular uptake”, the “DQ-BSA proteolysis, torin 1 combined with constitutive K-Ras activation” value ([5]; 250 nM torin 1, 6 h DQ-BSA uptake, versus either manipulation alone) was “almost four times more than either manipulation alone” and the “fluorescence dequenching of DQ-BSA” value ([5]; 250 nM torin 1, followed over time) was “dramatic increase”. For the same compound, the “rate of DQ-BSA degradation after torin 1 pre-treatment” value ([5]; pre-treating with 250 nM torin 1 for 6 h or 16 h) was “did not increase the rate of DQ-BSA degradation”, the cell proliferation ([6]; 3% albumin, EAAs abundant extracellularly, 250 nM torin 1, day 3) was “strongly decreased cell proliferation” and the cell proliferation ([6]; 3% albumin, low EAA concentrations, 250 nM torin 1, day 3) was “significantly improved cell proliferation”. The cell proliferation ([6]; 3% albumin, over a 10-fold range of EAA concentrations, 250 nM torin 1) was “only slightly reduced proliferation”, the cell proliferation ([6]; free leucine provided extracellularly, increasing doses of torin 1, day 3) was “decreased with increasing doses” and the cell proliferation ([6]; leucine-free medium +3% albumin, torin 1 raised from 50 to 300 nM) was “progressively improved cell proliferation”. For the same compound, the cell proliferation ([6]; medium lacking isoleucine, lysine or arginine, 3% albumin, 250 nM torin 1) was “induced cells to robustly proliferate”.
